The results in this text go back to ChEMBL document CHEMBL5465560, “Selectivity Literature for EUbOPEN Chemogenomic Library” (2024).

Where only a bound is given, the exact number is not on record here.

Assay [1] addresses Serine/threonine-protein kinase PAK 2 (Homo sapiens) (UniProt Q13177). The conditions noted are these: at 10 µM.
The target of assay [2] is Serine/threonine-protein kinase SBK1 (Homo sapiens) (UniProt Q52WX2). In words: Selectivity interaction (KinomeScan (DiscoverX)) EUB0000092b SBK1. The conditions noted are these: at 10 µM.
The target of assay [3] is T1, Serine/threonine-protein kinase TNNI3K (Homo sapiens) (UniProt Q59H18).
T1 sequence (whole entry): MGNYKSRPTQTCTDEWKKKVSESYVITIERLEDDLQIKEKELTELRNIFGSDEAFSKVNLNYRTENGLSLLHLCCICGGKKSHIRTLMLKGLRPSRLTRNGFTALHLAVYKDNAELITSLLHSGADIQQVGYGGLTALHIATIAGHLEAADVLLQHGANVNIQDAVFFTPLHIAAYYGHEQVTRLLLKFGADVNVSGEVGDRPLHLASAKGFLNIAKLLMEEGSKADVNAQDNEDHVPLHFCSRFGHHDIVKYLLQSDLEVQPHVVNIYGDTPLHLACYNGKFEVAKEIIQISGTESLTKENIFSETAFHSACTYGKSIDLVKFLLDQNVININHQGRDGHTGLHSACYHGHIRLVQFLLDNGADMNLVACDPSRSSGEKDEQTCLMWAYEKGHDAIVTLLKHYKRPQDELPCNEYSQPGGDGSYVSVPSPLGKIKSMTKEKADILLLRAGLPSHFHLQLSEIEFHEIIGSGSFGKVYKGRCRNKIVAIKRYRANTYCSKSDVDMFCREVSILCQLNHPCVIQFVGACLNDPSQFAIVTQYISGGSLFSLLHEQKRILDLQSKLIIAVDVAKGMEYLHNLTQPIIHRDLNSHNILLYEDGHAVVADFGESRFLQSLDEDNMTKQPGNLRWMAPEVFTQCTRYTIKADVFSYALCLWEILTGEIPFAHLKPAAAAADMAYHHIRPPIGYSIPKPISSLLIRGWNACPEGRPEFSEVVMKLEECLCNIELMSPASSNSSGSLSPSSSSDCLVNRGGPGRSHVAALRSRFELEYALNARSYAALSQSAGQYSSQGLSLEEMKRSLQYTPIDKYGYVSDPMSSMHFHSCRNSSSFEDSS
The experiment in a line: Selectivity interaction (KinomeScan (DiscoverX)) EUB0000695a TNNI3K. As to conditions: at 100 nM.

For assay [4], the target named is B1 bradykinin receptor (Homo sapiens) (UniProt P46663). The experiment in a line: Selectivity interaction (Eurofins CEREP Diversity Profile (receptors and ion channels)) EUB0000279b BDKRB1. The conditions noted are these: at 10 µM.
Assay [5] addresses T2, N-lysine methyltransferase KMT5A (Homo sapiens) (UniProt Q9NQR1).
T2 sequence (whole entry): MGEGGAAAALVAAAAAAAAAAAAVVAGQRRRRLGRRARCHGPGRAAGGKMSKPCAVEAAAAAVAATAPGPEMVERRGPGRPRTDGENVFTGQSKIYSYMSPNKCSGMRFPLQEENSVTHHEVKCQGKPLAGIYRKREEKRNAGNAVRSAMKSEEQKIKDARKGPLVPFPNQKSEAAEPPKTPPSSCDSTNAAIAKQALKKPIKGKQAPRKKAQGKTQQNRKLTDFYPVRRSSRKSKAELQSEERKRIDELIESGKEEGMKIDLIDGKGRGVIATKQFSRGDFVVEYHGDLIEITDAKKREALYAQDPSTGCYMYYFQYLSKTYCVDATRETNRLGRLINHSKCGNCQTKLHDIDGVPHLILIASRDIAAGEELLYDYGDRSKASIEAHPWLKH
In words: Selectivity interaction (Transferase panel (protein, RNA, and DNA methyltransferases. and EP300 (acetyltransferase))) EUB0000270b SETD8.

The target of assay [6] is Mitogen-activated protein kinase 9 (Homo sapiens, UniProt P45984). In words: Selectivity interaction (KinomeScan (DiscoverX)) EUB0000607a MAPK9. The conditions noted are these: at 10 µM.
Assay [7] deals with Serine/threonine-protein kinase Chk2 (Homo sapiens) (UniProt O96017). The experiment in a line: Selectivity interaction (ActivX KiNativ screen (kinase selectivity in THP-1 cell lysates)) EUB0000639a CHEK2. The class given is subcellular. The conditions noted are these: lysate, at 5 µM.
The target in assay [8] is Tyrosine-protein kinase ABL2 (Homo sapiens, UniProt P42684). In words: Selectivity interaction (KinomeScan (DiscoverX)) EUB0000595a ABL2. The conditions noted are these: at 10 µM.
Assay [9] deals with T3, Interleukin-1 receptor-associated kinase 4 (Homo sapiens) (UniProt Q9NWZ3).
T3 sequence (whole entry): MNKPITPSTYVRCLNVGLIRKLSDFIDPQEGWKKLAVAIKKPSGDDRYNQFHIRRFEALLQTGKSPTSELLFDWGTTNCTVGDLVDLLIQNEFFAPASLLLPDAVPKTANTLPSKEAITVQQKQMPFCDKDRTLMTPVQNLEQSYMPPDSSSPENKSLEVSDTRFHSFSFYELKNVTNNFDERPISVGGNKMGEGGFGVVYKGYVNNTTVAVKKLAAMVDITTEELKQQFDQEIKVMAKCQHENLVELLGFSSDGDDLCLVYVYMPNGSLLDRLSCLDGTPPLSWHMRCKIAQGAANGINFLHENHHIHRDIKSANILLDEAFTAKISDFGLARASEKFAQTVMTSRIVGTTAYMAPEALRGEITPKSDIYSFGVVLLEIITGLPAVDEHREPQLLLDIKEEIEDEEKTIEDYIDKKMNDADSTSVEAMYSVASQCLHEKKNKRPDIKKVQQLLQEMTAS
In words: Selectivity interaction (KinomeScan (DiscoverX)) EUB0001619a IRAK4. The conditions noted are these: at 1 µM.

For assay [10], the target named is cGMP-inhibited 3',5'-cyclic phosphodiesterase 3A (Homo sapiens, UniProt Q14432). The experiment in a line: Selectivity interaction (Safety Panel 44tm (Eurofins)) EUB0000162b PDE3A. The conditions noted are these: at 10 µM.
The target of assay [11] is Serine/threonine-protein kinase PAK 4 (Homo sapiens, UniProt O96013). The experiment in a line: Selectivity interaction (Kinase panel (literature)) EUB0001199aCl PAK4. As to conditions: at 1 µM.
Assay [12] addresses T3, Interleukin-1 receptor-associated kinase 4 (Homo sapiens). In words: Selectivity interaction (KinomeScan (DiscoverX)) EUB0000618a IRAK4. As to conditions: at 10 µM.
Assay [13] deals with T4, cAMP-dependent protein kinase catalytic subunit PRKX (Homo sapiens) (UniProt P51817).
T4 sequence (whole entry): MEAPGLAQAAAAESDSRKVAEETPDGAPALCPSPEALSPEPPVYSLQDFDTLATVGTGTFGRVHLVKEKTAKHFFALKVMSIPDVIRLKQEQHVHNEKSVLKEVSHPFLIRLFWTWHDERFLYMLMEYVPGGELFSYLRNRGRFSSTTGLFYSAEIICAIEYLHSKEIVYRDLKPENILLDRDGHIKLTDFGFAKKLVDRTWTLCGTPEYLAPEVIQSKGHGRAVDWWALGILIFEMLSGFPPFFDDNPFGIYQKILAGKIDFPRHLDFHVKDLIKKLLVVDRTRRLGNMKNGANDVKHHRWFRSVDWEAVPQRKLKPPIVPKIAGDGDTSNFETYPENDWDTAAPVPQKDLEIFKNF
In words: Selectivity interaction (KinomeScan (DiscoverX)) EUB0000618a PRKX. As to conditions: at 10 µM.

The target of assay [14] is Mitogen-activated protein kinase kinase kinase 11 (Homo sapiens) (UniProt Q16584). The experiment in a line: Selectivity interaction (KinomeScan (DiscoverX)) EUB0000618a MAP3K11. The conditions noted are these: at 10 µM.

Sequence of Serine/threonine-protein kinase PAK 2 (Homo sapiens) (Q13177 whole entry): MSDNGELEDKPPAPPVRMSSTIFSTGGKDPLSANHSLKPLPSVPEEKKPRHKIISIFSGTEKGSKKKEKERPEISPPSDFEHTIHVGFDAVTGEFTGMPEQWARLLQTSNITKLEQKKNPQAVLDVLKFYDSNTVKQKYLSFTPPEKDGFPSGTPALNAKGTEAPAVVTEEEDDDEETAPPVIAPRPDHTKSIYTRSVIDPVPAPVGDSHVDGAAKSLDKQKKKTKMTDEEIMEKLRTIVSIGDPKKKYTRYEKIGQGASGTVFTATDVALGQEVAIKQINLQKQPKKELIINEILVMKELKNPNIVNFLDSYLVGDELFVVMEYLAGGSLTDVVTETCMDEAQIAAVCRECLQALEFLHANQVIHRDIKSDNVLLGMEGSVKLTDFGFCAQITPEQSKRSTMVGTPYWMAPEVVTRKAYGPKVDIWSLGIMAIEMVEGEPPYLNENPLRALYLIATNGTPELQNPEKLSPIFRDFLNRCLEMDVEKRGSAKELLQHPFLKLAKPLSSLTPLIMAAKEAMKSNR
Sequence of Serine/threonine-protein kinase Chk2 (Homo sapiens) (O96017 whole entry): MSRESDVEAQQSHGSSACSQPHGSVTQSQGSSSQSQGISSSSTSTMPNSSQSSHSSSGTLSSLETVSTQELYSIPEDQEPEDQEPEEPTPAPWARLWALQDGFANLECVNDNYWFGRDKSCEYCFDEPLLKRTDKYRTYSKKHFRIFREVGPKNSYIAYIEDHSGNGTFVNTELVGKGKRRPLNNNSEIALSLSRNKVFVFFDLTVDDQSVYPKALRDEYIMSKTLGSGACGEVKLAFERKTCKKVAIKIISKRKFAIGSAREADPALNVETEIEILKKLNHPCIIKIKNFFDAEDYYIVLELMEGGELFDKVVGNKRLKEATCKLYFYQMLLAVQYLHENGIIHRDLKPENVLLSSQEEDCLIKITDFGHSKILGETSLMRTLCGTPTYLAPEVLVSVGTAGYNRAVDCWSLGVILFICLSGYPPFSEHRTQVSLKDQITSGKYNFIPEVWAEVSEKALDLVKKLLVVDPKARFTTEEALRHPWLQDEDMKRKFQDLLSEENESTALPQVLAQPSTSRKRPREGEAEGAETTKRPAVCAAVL
Sequence of cGMP-inhibited 3',5'-cyclic phosphodiesterase 3A (Q14432 whole entry): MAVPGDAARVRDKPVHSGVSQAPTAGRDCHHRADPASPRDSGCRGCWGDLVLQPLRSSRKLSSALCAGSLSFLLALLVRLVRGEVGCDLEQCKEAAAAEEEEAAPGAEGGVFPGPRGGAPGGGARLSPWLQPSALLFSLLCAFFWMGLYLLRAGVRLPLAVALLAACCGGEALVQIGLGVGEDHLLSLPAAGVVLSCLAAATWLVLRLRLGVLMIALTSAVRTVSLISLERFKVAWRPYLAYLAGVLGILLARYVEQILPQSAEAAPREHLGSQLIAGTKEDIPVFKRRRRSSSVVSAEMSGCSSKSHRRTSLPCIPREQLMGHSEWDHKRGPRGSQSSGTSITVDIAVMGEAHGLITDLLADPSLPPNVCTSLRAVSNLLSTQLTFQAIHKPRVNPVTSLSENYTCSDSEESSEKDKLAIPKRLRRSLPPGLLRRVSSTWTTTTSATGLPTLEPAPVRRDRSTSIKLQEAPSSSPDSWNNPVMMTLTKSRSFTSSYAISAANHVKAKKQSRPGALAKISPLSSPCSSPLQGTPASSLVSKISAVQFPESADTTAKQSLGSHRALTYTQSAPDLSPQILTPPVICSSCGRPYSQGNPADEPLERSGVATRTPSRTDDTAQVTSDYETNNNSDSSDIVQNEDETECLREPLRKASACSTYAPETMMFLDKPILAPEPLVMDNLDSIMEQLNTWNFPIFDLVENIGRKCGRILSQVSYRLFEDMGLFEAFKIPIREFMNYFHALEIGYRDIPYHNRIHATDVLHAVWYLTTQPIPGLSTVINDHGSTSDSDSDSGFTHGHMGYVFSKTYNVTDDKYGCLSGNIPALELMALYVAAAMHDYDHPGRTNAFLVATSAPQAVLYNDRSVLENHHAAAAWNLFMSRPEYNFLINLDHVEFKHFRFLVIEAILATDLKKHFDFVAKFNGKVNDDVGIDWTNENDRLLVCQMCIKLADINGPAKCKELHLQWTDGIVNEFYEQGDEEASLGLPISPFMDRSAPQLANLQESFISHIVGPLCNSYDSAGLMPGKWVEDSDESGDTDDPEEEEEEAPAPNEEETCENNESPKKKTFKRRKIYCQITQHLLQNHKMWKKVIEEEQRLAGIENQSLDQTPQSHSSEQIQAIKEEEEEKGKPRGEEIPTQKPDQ
Sequence of B1 bradykinin receptor (Homo sapiens) (P46663 whole entry): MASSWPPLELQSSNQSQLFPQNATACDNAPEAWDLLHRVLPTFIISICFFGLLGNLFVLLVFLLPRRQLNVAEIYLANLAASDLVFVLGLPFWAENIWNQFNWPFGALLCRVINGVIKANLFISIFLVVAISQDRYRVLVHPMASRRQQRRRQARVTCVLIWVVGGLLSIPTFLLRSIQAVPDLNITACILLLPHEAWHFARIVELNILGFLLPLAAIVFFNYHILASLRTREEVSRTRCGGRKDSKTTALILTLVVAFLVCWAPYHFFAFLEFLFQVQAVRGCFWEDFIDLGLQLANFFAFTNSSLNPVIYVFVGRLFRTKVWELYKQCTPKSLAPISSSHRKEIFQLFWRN
Sequence of Serine/threonine-protein kinase PAK 4 (O96013 whole entry, looked up): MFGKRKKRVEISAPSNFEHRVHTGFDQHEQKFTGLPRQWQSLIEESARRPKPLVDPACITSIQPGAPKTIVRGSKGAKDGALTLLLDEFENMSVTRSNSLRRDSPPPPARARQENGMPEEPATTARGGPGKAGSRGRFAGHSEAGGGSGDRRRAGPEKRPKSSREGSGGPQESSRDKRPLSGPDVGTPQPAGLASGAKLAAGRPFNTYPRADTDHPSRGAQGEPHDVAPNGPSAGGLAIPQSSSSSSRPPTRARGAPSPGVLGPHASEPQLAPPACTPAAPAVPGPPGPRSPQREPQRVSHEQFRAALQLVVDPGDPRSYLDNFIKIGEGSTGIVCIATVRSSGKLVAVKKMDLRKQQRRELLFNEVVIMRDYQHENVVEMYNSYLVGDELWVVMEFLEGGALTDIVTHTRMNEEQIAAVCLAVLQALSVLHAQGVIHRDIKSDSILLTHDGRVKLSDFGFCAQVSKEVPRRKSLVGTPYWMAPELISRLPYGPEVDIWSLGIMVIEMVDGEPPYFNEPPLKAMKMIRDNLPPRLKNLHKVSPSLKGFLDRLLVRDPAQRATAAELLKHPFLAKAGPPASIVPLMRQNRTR
Sequence of Serine/threonine-protein kinase SBK1 (Homo sapiens) (Q52WX2 whole entry): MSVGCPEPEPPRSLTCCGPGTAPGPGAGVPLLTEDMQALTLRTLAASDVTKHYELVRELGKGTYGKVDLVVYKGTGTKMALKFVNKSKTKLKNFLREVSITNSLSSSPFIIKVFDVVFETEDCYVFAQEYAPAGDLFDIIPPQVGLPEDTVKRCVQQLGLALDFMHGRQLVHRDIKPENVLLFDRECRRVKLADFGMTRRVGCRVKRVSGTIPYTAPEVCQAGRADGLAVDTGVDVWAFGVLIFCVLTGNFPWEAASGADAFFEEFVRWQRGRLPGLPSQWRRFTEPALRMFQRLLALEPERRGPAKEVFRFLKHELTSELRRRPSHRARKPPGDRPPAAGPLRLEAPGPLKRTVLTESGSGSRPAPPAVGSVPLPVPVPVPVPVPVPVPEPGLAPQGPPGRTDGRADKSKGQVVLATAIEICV
Sequence of Tyrosine-protein kinase ABL2 (P42684 whole entry): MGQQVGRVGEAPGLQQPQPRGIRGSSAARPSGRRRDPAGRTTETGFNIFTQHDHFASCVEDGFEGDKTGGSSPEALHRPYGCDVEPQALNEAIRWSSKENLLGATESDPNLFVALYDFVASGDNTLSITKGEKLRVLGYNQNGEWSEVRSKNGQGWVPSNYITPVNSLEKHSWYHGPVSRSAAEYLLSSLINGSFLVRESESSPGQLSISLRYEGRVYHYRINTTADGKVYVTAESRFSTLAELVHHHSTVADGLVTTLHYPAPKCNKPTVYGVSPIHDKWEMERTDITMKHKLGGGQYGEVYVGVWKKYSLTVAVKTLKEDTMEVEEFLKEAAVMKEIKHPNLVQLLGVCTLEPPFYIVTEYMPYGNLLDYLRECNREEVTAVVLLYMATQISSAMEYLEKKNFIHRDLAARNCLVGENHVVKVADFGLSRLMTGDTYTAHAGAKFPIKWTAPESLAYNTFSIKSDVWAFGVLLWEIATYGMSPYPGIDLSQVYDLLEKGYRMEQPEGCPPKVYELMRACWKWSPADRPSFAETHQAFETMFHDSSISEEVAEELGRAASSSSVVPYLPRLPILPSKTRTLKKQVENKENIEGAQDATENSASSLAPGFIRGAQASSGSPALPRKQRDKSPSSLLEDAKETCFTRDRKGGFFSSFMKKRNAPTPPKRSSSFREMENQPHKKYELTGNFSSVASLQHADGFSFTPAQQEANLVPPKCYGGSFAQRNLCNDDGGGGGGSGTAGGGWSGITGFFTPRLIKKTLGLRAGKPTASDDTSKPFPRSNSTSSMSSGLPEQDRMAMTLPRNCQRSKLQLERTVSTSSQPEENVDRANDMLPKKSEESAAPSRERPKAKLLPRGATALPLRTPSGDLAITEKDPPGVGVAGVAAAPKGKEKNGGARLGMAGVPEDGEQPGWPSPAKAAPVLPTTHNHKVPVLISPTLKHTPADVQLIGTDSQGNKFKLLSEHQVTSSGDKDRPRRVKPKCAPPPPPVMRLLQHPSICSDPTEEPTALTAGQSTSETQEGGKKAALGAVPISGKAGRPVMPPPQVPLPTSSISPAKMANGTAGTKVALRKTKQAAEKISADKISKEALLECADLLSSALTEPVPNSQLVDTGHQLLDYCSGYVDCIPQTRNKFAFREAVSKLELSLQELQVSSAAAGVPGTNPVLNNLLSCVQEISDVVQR

For `Cc1cc([C@@H](C)Nc2ccccc2C(=O)O)c2nc(N3CCOCC3)cc(=O)n2c1` [AZD-6482], the % of control in assay [1] was 100%.

In the case of `CCC(=O)N1CCN(c2ccc(-n3c(=O)ccc4cnc5ccc(-c6cnc7ccccc7c6)cc5c43)cc2C(F)(F)F)CC1`, the % of control in [2] amounted to 88%.

Turning to `Cc1cc(F)c(C(=O)Nc2cccc(-c3nncn3C(C)C)n2)cc1-n1cnc(C2CC2)c1`, the % of control in assay [3] worked out at 100%.

`CC(=O)c1cc(-c2ccccc2OCC2CC2)c2ncccn12` registered a % of control in [4] of 95%.

With `Cc1cc(CN)cc(C)c1-c1ncn(C)c1-c1cncn1C`, the figures for the % activity in [5] (at 1 µM) and in assay [5] (at 10 µM) were over 90% and over 80%, respectively.

In assay [6], `CNC(=O)Nc1ccc(-c2nc(N3CC4CCC(C3)O4)c3cnn(C4CCC5(CC4)OCCO5)c3n2)cc1` gave a % of control of 85%.

In the case of `CC[C@@H]1[C@H](F)C(=O)N[C@@H]1COc1nccc2cc(C(N)=O)c(OC)cc12` [ZIMLOVISERTIB], the % of inhibition in [7] came out at 65.9%.

On to `COCC(=O)NC/C=C/c1ccc2ncnc(Nc3ccc(Oc4ccc(C)nc4)c(C)c3)c2c1` [CP-724714], for which the % of control in assay [8] came out at 100%.

Take `N#Cc1cccc(-c2c[nH]c3ncnc(N4CCOCC4)c23)c1`: the % of control in [9] is 69%.

For the compound `CN(C)C(=O)Cn1cc(-c2ccc(-c3cncc4ccccc34)cc2)cn1`, the % of control in assay [10] is 82%.

For `CN1Cc2nccc(-c3cn(C)nc3-c3ccc(F)cc3)c2C1=O`, the % of inhibition in assay [11] came to 7%.

`O[C@H]1CC[C@H](Nc2ncc3nc(Nc4c(F)cc(F)cc4F)n([C@H]4CCOC4)c3n2)CC1`: the results for the % of control in assay [12], in assay [13] and in assay [14] were 94%, 100% and 100%, respectively.
